Reference: patent US6984660B2, “P-thienylbenzylamides as agonists of angiotensin-(1-7) receptors, and methods of their preparation and use” (Aventis Pharma Deutschland GmbH, priority 2001, dated 2006)

Key:
[1] = system: primarily cultivated endothelial cells derived from bovine aortas; test: Test 2: functional assay, stimulation of intracellular cGMP production in endothelial cells; format: cell-based; conditions: for EC50: Bos taurus, Endothelial cell, production of intracellular cGMP, marker for NO production and release, radioimmunoassay; for stimulatory effect on cGMP after preincubation with a selective angiotensin-(1-7) receptor antagonist: preincubation with [D-Ala^7]-angiotensin-(1-7); for effect on the production of cGMP after preincubation with an AT1 receptor antagonist: preincubation with angiotensin II AT1 subtype antagonist, such as EXP3174; for effect on the production of cGMP after preincubation with an AT2 receptor antagonist: preincubation with angiotensin II AT2 subtype antagonist, such as PD 123,319
Description: The stimulatory effect of the compounds of formula (I) on the production of intracellular cGMP, which is a marker for the production and release of NO in endothelial cells, was measured on primarily cultivated endothelial cells derived from bovine aortas, as described, for example, in J. Pharmacol. Exp. Ther. (1992) 262:729-733, herein incorporated by reference.
After having been enzymatically digested (dispase II; Boehringer, Mannheim) from the bovine aorta, the endothelial cells were taken up in culture medium (Dulbecco's modified Eagle's Ham's F 12 medium 1:1 containing penicillin (10 U/L), streptomycin (10 ug/L), L-glutamine (1 mmol/L), glutathione and L-(+)-ascorbic acid (in each case 5 mg/L) and heat-inactivated fetal calf serum (20%)), washed once (centrifugation at 170×g, 10 min) and resuspended in culture medium. This cell suspension was seeded in 6-well plates (Nunc Intermed, Wiesbaden) (˜250 μg of protein or […] per well), with the wells then being filled with culture medium and the plates kept at 37° C. in an incubator which was moistened and gassed with 95% O2-5% CO2.
After confluence had been reached (6-8 days after seeding), the culture medium was removed and the cell monolayer was washed twice with warm HEPES/Tyrode's solution. After that, the cells were preincubated, at 37° C. for 15 min, in HEPES/Tyrode's solution containing IBMX (3-isobutyl-1-methylxanthine, 10^−4 mol/L, Serva, Heidelberg). The incubation was started by adding SOD (bovine erythrocyte superoxide dismutase, 3×10^−7 mol/L, Serva, Heidelberg) and the test substances of formula (I) at the given concentrations. After the appropriate incubation time, the incubation medium was aspirated and the cells which remained behind were immediately extracted in 1 N formic acid/acetone (v/v, 15:85) and scraped off. The resulting suspension was ultrasonicated (10 sec) and then centrifuged down (3000×g, 10 min). For the purpose of determining cGMP by means of radioimmunoassay (New England Nuclear, Boston, Mass.), the supernatant was lyophilized and the lyophilisate taken up in sodium acetate buffer (0.05 mol/L; pH 6.2). The content (pmol) of intracellular cGMP was related to mg of cell protein.

SMILES	melting point [°C]	further results
CCNC(=O)NS(=O)(=O)c1sc(CC(C)C)cc1-c1ccc(CN(C(=O)c2ccccc2)[C@H](C(=O)OC)C(C)C)cc1 [Example 4, Methyl 2-N-benzoyl-2-N-[4-[2-(ethylaminocarbonylsulfonamido)-5-isobutyl-3-thienyl]benzyl]amino-3-methyl-L-butyrate]	65	EC50 [1]: 600 nM; stimulatory effect on cGMP after preincubation with a selective angiotensin-(1-7) receptor antagonist [1]: inhibited; effect on the production of cGMP after preincubation with an AT1 receptor antagonist [1]: not influenced; effect on the production of cGMP after preincubation with an AT2 receptor antagonist [1]: not influenced
CCNC(=O)NS(=O)(=O)c1sc(CC(C)C)cc1-c1ccc(CN(C(=O)c2ccccc2)[C@H](C(=O)OCC)C(C)C)cc1 [Example 5, Ethyl 2-N-benzoyl-2-N-[4-[2-(ethylaminocarbonylsulfonamido)-5-isobutyl-3-thienyl]benzyl]amino-3-methyl-L-butyrate]	88 to 90	
CCNC(=O)NS(=O)(=O)c1sc(CC(C)C)cc1-c1ccc(CN(C(=O)c2ccccc2)[C@H](C(=O)O)C(C)C)cc1 [Example 6, 2-N-Benzoyl-2-N-[4-[2-(ethylaminocarbonylsulfonamido)-5-isobutyl-3-thienyl]benzyl]amino-3-methyl-L-butyric acid]	149	
CCNC(=O)NS(=O)(=O)c1sc(CC(C)C)cc1-c1ccc(CN(C(C)=O)[C@H](C(=O)OC)C(C)C)cc1 [Example 9, Methyl 2-N-acetyl-2-N-[4-[2-(ethylaminocarbonylsulfonamido)-5-isobutyl-3-thienyl]benzyl]amino-3-methyl-L-butyrate]	130	EC50 [1]: 40 nM; stimulatory effect on cGMP after preincubation with a selective angiotensin-(1-7) receptor antagonist [1]: inhibited; effect on the production of cGMP after preincubation with an AT1 receptor antagonist [1]: not influenced; effect on the production of cGMP after preincubation with an AT2 receptor antagonist [1]: not influenced
CCNC(=O)NS(=O)(=O)c1sc(CC(C)C)cc1-c1ccc(CN(C(C)=O)[C@H](C(=O)OCC)C(C)C)cc1 [Example 10, Ethyl 2-N-acetyl-2-N-[4-[2-(ethylaminocarbonylsulfonamido)-5-isobutyl-3-thienyl]benzyl]amino-3-methyl-L-butyrate]	81	

Now from value to compound, other results behind:

melting point [°C]	SMILES	further results
136	CCNC(=O)NS(=O)(=O)c1sc(CC(C)C)cc1-c1ccc(CN(C(C)=O)[C@H](C(=O)O)C(C)C)cc1 [Example 11, 2-N-Acetyl-2-N-[4-[2-(ethylaminocarbonylsulfonamido)-5-isobutyl-3-thienyl]benzyl]amino-3-methyl-L-butyric acid]	
93	CCCCOC(=O)NS(=O)(=O)c1sc(CC(C)C)cc1-c1ccc(CN(C(=O)c2ccco2)[C@H](C(=O)O)C(C)C)cc1 [Example 13, 2-N-(2-Furanoyl)-2-N-[4-[2-(n-butyloxycarbonylsulfonamido)-5-isobutyl-3-thienyl]benzyl]amino-3-methyl-L-butyric acid]	
84	CNC(=O)NS(=O)(=O)c1sc(CC(C)C)cc1-c1ccc(CN(C(=O)c2ccco2)[C@H](C(=O)OC)C(C)C)cc1 [Example 14, Methyl 2-N-(2-furanoyl)-2-N-[4-[2-(methylaminocarbonylsulfonamido)-5-isobutyl-3-thienyl]benzyl]amino-3-methyl-L-butyrate]	
134	CNC(=O)NS(=O)(=O)c1sc(CC(C)C)cc1-c1ccc(CN(C(=O)c2ccco2)[C@H](C(=O)O)C(C)C)cc1 [Example 15, 2-N-(2-Furanoyl)-2-N-[4-[2-(methylaminocarbonylsulfonamido)-5-isobutyl-3-thienyl]benzyl]amino-3-methyl-L-butyric acid]	
66	CCCCOC(=O)NS(=O)(=O)c1sc(CC(C)C)cc1-c1ccc(CN(C(=O)CCC(=O)O)[C@H](C(=O)O)C(C)C)cc1 [Example 17, 2-N-(3-Carboxypropionyl)-2-N-[4-[2-(n-butyloxycarbonylsulfonamido)-5-isobutyl-3-thienyl]benzyl]amino-3-methyl-L-butyric acid]	
158	CNC(=O)NS(=O)(=O)c1sc(CC(C)C)cc1-c1ccc(CN(C(=O)CCC(=O)OC)[C@H](C(=O)OC)C(C)C)cc1 [Example 18]	
